Measured values taken from patent publication US12606528B2, “Methods and materials for inhibiting NF-kB activity” (University of Pittsburgh - Of the Commonwealth System of …, priority 2019, dated 2026).
Read-outs that look alike come from different tables or passages of the source.

How the values were obtained:
[1] = tested on: NF-κB; assay: NF-κB assay: THP1-NF-κB-LUC cells, LPS-stimulated secreted luciferase; type: cell-based; conditions: THP1-NF-κB-LUC cells, read-out: IC50 (NF-κB assay)
Procedure, shortened: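 THP1-NF-κB-LUC cells (25k/well) were pretreated with compounds for 2 h, then stimulated with LPS (10 ng/mL) for 18 h. Secreted luciferase was measured and normalized to vehicle, and IC50 was fitted from the concentration series.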

[2] = tested on: TNF release; assay: TNF assay: TNF release from LPS-stimulated human PBMCs (TNF ELISA); type: cell-based; conditions: PBMC, read-out: IC50 (TNF assay)
Procedure, shortened: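 Human PBMCs at 10k/well pretreated with compound dilutions 2 h, then stimulated with LPS (10 ng/mL) for 18 h. TNF in supernatants quantified by ELISA; IC50 for inhibition of TNF release fitted from concentration–response.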

[3] = compounds 2 hours before LPS (10 ng/mL) for 18 hours, secreted luciferase
[4] = human PBMCs, compounds 2 hours before LPS (10 ng/ml) for 18 hours, supernatant TNF ELISA

Structure (SMILES)	IC50 [1, 3] [nM]	IC50 [2, 4] [nM]	IC50 ([1]; LPS-stimulated) [nM]	IC50 ([2]; LPS-stimulated human PBMCs, TNF ELISA) [nM]
CCc1cccc(NS(=O)(=O)c2cc(Br)cc3c2OC(C)C(=O)N3C)c1 (centres unmarked) [BC19900]	100 to 1000	> 10000		
CCc1cccc(NS(=O)(=O)c2cc3c(cc2Br)N(C)C(=O)C(C)O3)c1 (centres unmarked) [BC19901]	1000 to 10000	> 10000		
CC1Oc2cc(S(=O)(=O)Nc3cccc(F)c3)c(Br)cc2N(C)C1=O (centres unmarked) [BC19903]	100 to 1000	> 10000		
CC1Oc2cc(S(=O)(=O)Nc3cccc(Cl)c3)c(Br)cc2N(C)C1=O (centres unmarked) [BC19905]	1000 to 10000	> 10000		
CC1Oc2cc(S(=O)(=O)Nc3ccc(F)cc3Cl)c(Br)cc2N(C)C1=O (centres unmarked) [BC19907]	> 10000	> 10000		
COc1ccc(NS(=O)(=O)c2cc(Br)cc3c2OC(C)C(=O)N3C)cc1Cl (centres unmarked) [BC19909]	> 10000	> 10000		
CC1Oc2cc(S(=O)(=O)Nc3ccc(F)cc3)c(Br)cc2N(C)C1=O (centres unmarked) [BC19910]	1000 to 10000	> 10000		
Cc1ccc(NS(=O)(=O)c2cc3c(cc2Br)N(C)C(=O)C(C)O3)cc1 (centres unmarked) [BC19912]	> 10000	> 10000		
CCC1Oc2cc(S(=O)(=O)Nc3ccc(F)cc3F)c(Br)cc2N(C)C1=O (centres unmarked) [BC19914]	100 to 1000	> 10000		
CCc1cccc(NS(=O)(=O)c2cc3c(cc2Br)N(C)C(=O)C(CC)O3)c1 (centres unmarked) [BC19916]	1000 to 10000	> 10000		
O=C(O)c1cc2c(c(NS(=O)(=O)c3ccc(F)c(F)c3)c1)N1CCCC1C(=O)N2 (centres unmarked) [BC19917]			> 10000	> 10000
COc1ccc(NS(=O)(=O)c2cc3c(cc2Br)N(C)C(=O)C(C)O3)cc1Cl (centres unmarked) [BC19919]	> 10000	> 10000		
CC1Oc2cc(S(=O)(=O)Nc3ccc(C#N)cc3)c(Br)cc2N(C)C1=O (centres unmarked) [BC19920]	100 to 1000	> 10000		
CCC1Oc2cc(S(=O)(=O)Nc3ccccc3)c(Br)cc2N(C)C1=O (centres unmarked) [BC19928]	100 to 1000	1000 to 10000		
CCC1Oc2cc(S(=O)(=O)Nc3ccc(Cl)cc3)c(Br)cc2N(C)C1=O (centres unmarked) [BC19930]	100 to 1000	> 10000		
CCC1Oc2cc(S(=O)(=O)Nc3ccc(C(C)C)cc3)c(Br)cc2N(C)C1=O (centres unmarked) [BC19934]	100 to 1000	1000 to 10000		
CCC1Oc2c(cc(Br)cc2S(=O)(=O)Nc2ccc(C)c(Cl)c2)N(C)C1=O (centres unmarked) [BC19937]	< 100	1000 to 10000		
CCC1Oc2cc(S(=O)(=O)Nc3ccc(C)c(Cl)c3)c(Br)cc2N(C)C1=O (centres unmarked) [BC19938]	100 to 1000	1000 to 10000		
COc1ccc2[nH]cc(S(=O)(=O)c3ccc(F)c(F)c3)c(=O)c2n1 [BC 19203]	1000 to 10000	> 10000		
O=S(=O)(c1ccc(Br)cc1)c1cnccc1O [BC 19460]	> 10000	> 10000		

Second part, the compound after the results:

IC50 [1, 3] [nM]	IC50 [2, 4] [nM]	IC50 ([1]; LPS-stimulated) [nM]	IC50 ([2]; LPS-stimulated human PBMCs, TNF ELISA) [nM]	Structure (SMILES)
< 100	> 10000			CC1Oc2c(cc(Br)cc2S(=O)(=O)Nc2cccc(F)c2)N(C)C1=O (centres unmarked) [BC19902]
< 100	> 10000			CC1Oc2c(cc(Br)cc2S(=O)(=O)Nc2cccc(Cl)c2)N(C)C1=O (centres unmarked) [BC19904]
< 100	1000 to 10000			Cc1ccc(NS(=O)(=O)c2cc(Br)cc3c2OC(C)C(=O)N3C)cc1 (centres unmarked) [BC19906]
< 100	> 10000			CC1Oc2c(cc(Br)cc2S(=O)(=O)Nc2ccc(F)cc2Cl)N(C)C1=O (centres unmarked) [BC19908]
< 100	> 10000			CC1Oc2c(cc(Br)cc2S(=O)(=O)Nc2ccc(F)cc2)N(C)C1=O (centres unmarked) [BC19911]
< 100	> 10000			CCC1Oc2c(cc(Br)cc2S(=O)(=O)Nc2ccc(F)cc2F)N(C)C1=O (centres unmarked) [BC19913]
< 100	> 10000			CCc1cccc(NS(=O)(=O)c2cc(Br)cc3c2OC(CC)C(=O)N3C)c1 (centres unmarked) [BC19915]
< 100	1000 to 10000			CCC1Oc2c(cc(Br)cc2S(=O)(=O)Nc2ccc(OC(F)(F)F)cc2)N(C)C1=O (centres unmarked) [BC19921]
< 100	> 10000			CCC1Oc2cc(S(=O)(=O)Nc3ccc(OC(F)(F)F)cc3)c(Br)cc2N(C)C1=O (centres unmarked) [BC19922]
< 100	1000 to 10000			CCC1Oc2c(cc(Br)cc2S(=O)(=O)Nc2ccc(C)c(F)c2)N(C)C1=O (centres unmarked) [BC19923]
< 100	1000 to 10000			CCC1Oc2cc(S(=O)(=O)Nc3ccc(C)c(F)c3)c(Br)cc2N(C)C1=O (centres unmarked) [BC19924]
< 100	1000 to 10000			CCC1Oc2c(cc(Br)cc2S(=O)(=O)Nc2ccc(F)c(F)c2)N(C)C1=O (centres unmarked) [BC19925]
< 100	> 10000			CCC1Oc2cc(S(=O)(=O)Nc3ccc(F)c(F)c3)c(Br)cc2N(C)C1=O (centres unmarked) [BC19926]
< 100	1000 to 10000			CCC1Oc2c(cc(Br)cc2S(=O)(=O)Nc2ccccc2)N(C)C1=O (centres unmarked) [BC19927]
< 100	1000 to 10000			CCC1Oc2c(cc(Br)cc2S(=O)(=O)Nc2ccc(Cl)cc2)N(C)C1=O (centres unmarked) [BC19929]
< 100	1000 to 10000			CCc1ccc(NS(=O)(=O)c2cc(Br)cc3c2OC(CC)C(=O)N3C)cc1 (centres unmarked) [BC19931]
< 100	1000 to 10000			CCc1ccc(NS(=O)(=O)c2cc3c(cc2Br)N(C)C(=O)C(CC)O3)cc1 (centres unmarked) [BC19932]
< 100	1000 to 10000			CCC1Oc2c(cc(Br)cc2S(=O)(=O)Nc2ccc(C(C)C)cc2)N(C)C1=O (centres unmarked) [BC19933]
< 100	1000 to 10000			CCC1Oc2c(cc(Br)cc2S(=O)(=O)Nc2ccc(OC)cc2)N(C)C1=O (centres unmarked) [BC19935]
< 100	> 10000			CCC1Oc2cc(S(=O)(=O)Nc3ccc(OC)cc3)c(Br)cc2N(C)C1=O (centres unmarked) [BC19936]
